For experiment [1], the system named is Malpighian tubules (MTs) of adult female A. aegypti. On the set-up: species or system Aedes aegypti. The following applies: for Effect of single diuretic on fluid secretion: 25 nmol l^−1 DH31, 100 nmol l^−1 5HT, 10 nmol l^−1 DH44, 50 nmol l^−1 CDP, 60 min, Fig. 5A. As to the method:
In order to determine fluid secretion rates, modified Ramsay assays were performed as described previously ([Lajevardi et al., 2021]; [Sajadi et al., 2018]). Female adults (4–7 days old) were dissected under physiological Aedes saline adapted from [Petzel et al. (1987)] that contained (in mmol l^−1): 150 NaCl, 25 Hepes, 3.4 KCl, 7.5 NaOH, 1.8 NaHCO3, 1 MgSO4, 1.7 CaCl2 and 5 glucose, and titrated to pH 7.1. Individual MTs were removed and placed in a Sylgard-lined Petri dish containing 20 µl bathing droplets [1:1 mixture of Schneider's Insect Medium (Sigma-Aldrich, Oakville, ON, Canada): Aedes saline], immersed in hydrated mineral oil to prevent evaporation. The proximal end of each tubule was wrapped around a minutien pin to allow for fluid secretion measurements. Dose response analysis for AedaeDH31 was determined by using concentrations ranging from 10^−5 to 10^−12 mol l^−1 on unstimulated MTs. To investigate the effects of collected haemolymph samples on fluid secretion rate, haemolymph samples from both non-blood-fed and blood-fed females were used against unstimulated MTs and allowed to incubate for 60 min before measurement of secreted fluid droplets. To investigate potential additive or synergistic activity, dosages of 25 nmol l^−1 AedaeDH31, 10 nmol l^−1 Rhodnius prolixus DH (CRF-related peptide, DH44), 50 nmol l^−1 CDP, 100 nmol l^−1 5HT, and 1 fmol l^−1 AedaeCAPA-1 were used ([Sajadi et al., 2018], [2020]).

Another experiment concerns the target T1, Aedaekinin-R (Aedes aegypti, UniProt Q5EY37).
T1 sequence (Q5EY37 1-584): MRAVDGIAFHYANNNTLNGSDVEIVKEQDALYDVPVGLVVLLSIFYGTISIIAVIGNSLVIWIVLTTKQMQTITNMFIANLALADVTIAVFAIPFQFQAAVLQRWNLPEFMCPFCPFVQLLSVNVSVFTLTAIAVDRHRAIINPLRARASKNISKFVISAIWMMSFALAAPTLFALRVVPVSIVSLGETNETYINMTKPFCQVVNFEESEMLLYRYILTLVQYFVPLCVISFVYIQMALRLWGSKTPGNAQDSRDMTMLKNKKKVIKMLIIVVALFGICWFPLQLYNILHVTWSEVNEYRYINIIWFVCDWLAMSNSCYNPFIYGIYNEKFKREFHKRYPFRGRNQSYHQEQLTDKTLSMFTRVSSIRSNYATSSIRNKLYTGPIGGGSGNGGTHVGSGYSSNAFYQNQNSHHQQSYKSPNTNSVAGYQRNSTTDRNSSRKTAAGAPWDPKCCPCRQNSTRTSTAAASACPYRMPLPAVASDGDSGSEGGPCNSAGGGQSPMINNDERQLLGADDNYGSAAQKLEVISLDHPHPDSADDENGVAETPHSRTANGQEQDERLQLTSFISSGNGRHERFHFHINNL
The experiment can be described thus: Heterologous receptor functional activation bioluminescence assay, Aedaekinin-R. Type of experiment: cell-based. The text has this:
(§1) Gene-specific primers were designed to amplify the open reading frame of the AedaeDH31 receptor and Aedaekinin receptor based on previously published sequences [GenBank accession numbers: DH31-R, AAGE02017873 ([Kwon et al., 2012]); kinin-R, AY596453.1 ([Lu et al., 2011]); see Table 1]. The amplified PCR products were purified using a Monarch PCR purification kit (New England Biolabs, Whitby, ON, Canada) and reamplified using modified primers containing restriction sites for subsequent directional cloning in mammalian expression plasmids. Products were A-tailed and cloned into a pGEM-T Easy vector (Promega, Madison, WI, USA) or pCE2 TA/Blunt-Zero vector (GeneBio Systems, Burlington, ON, Canada) and then transformed into 5-alpha high efficiency competent E. coli (New England Biolabs, Whitby, ON, Canada). Base accuracy of purified plasmid DNA miniprep was confirmed by Sanger sequencing (The Centre for Applied Genomics, Sick Kids, Toronto, ON, Canada). The receptor constructs DH31-R and kinin-R were excised using standard restriction enzyme digestion and subcloned into the mammalian expression vectors, pBudCE4.1 Gα15 or pcDNA3.1^+ (Life Technologies, Burlington, ON, Canada), with the former containing a mammalian promiscuous G protein (Gα15), which facilitates coupling of a wide variety of GPCRs to calcium signaling ([Wahedi et al., 2019]). The previously characterized A. aegypti CAPA receptor inserted into pcDNA3.1^+ ([Sajadi et al., 2020]) was also used for transfection of mammalian cells. Plasmid DNA was purified from overnight bacterial cultures using the ZymoPURE II Plasmid Midiprep Kit (Zymo Research, Tustin, CA, USA) following manufacturer guidelines. These three heterologously expressed receptors were used to determine the timing of release and quantify the levels in the haemolymph of CAPA (both CAPA-1 and CAPA-2), DH31 along with kinin neuropeptides in association with blood feeding by adult female mosquitoes.
(§2) Functional activation of the AedaeDH31-R, AedaeCAPA-R, and Aedaekinin-R was assayed using a previously established recombinant Chinese hamster ovary (CHO)-K1 cell line stably expressing aequorin, referred to henceforth as CHO-K1-aeq cells ([Paluzzi et al., 2012a]; [Wahedi and Paluzzi, 2018]). […] Cells were grown and maintained in Dulbecco's modified eagles medium:nutrient F12 (DMEM:F12; 1:1) medium containing 10% heat-inactivated fetal bovine serum (FBS; Wisent, St. Bruno, QC, Canada), 1× antimycotic-antibiotic and 200 µg ml^−1 geneticin (G418 Sulfate). […] Approximately 48 h post-transfection, cells were dislodged from the culture flasks using 5 mmol l^−1 ethylenediaminetetraacetic acid (EDTA; Life Technologies, Burlington, ON, Canada) in DPBS and cells were resuspended in BSA medium (DMEM-F12 medium containing 0.1% bovine serum albumin, 1X antimycotic-antibiotic) at a concentration of 10^6–10^7 cells ml^−1 quantified using a Countess II FL cell counter (Thermo Fisher Scientific, Burlington, ON, Canada). Coelenterazine h (Promega, Madison, WI, USA) was added to the cells to a final concentration of 5 µmol l^−1 and incubated for 3 h, as described previously ([Oryan et al., 2018]) and subsequently, diluted 10-fold in BSA medium and incubated for an additional hour at room temperature. To measure in vivo circulating levels of DH31, kinin and CAPA in female mosquitoes, diluted haemolymph samples collected in 70 µl DPBS droplets (see section 3.2) were loaded in duplicates into 96-well white luminescence plates (Greiner Bio-One, Germany).

The target in the next experiment is AedaeDH31-R. The experiment in a line: Heterologous receptor functional activation bioluminescence assay, AedaeDH31-R. Type of experiment: cell-based, Aedes aegypti. The following applies: for EC50: CHO-K1-aeq cells transiently expressing AedaeDH31-R (pBudCE4.1 Gα15), aequorin luminescence over 20 s, peptides tested up to 10 µmol l^−1, read-out: EC50 on DH31-R.
Source text: as §1, §2

The next experiment addresses T2, AedaeCAPA-R (Aedes aegypti, UniProt A0A7D5D2Z2).
T2 sequence (A0A7D5D2Z2 1-712): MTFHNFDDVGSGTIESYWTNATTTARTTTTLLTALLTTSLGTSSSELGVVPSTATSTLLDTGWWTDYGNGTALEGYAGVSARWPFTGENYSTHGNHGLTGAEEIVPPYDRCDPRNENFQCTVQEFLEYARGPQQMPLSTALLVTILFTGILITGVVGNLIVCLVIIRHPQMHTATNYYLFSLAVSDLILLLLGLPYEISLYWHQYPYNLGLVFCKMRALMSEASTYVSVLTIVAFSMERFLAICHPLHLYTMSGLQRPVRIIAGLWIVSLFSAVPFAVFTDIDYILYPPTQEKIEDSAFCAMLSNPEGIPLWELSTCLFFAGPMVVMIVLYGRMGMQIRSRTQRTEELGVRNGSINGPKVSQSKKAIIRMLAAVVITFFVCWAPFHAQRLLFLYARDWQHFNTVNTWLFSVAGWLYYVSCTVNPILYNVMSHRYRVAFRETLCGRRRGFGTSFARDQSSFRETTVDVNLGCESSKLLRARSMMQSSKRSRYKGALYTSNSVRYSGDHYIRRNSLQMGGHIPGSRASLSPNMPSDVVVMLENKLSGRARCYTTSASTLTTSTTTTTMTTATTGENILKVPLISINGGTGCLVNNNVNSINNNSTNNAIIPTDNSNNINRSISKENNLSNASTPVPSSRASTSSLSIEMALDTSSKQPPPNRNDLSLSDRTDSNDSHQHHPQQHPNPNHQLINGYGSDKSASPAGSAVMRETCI
The experiment in a line: cell-based. The text has this:
Gene-specific primers were designed to amplify the open reading frame of the AedaeDH31 receptor and Aedaekinin receptor based on previously published sequences [GenBank accession numbers: DH31-R, AAGE02017873 ([Kwon et al., 2012]); kinin-R, AY596453.1 ([Lu et al., 2011]); see Table 1]. The amplified PCR products were purified using a Monarch PCR purification kit (New England Biolabs, Whitby, ON, Canada) and reamplified using modified primers containing restriction sites for subsequent directional cloning in mammalian expression plasmids. […] These three heterologously expressed receptors were used to determine the timing of release and quantify the levels in the haemolymph of CAPA (both CAPA-1 and CAPA-2), DH31 along with kinin neuropeptides in association with blood feeding by adult female mosquitoes.
Functional activation of the AedaeDH31-R, AedaeCAPA-R, and Aedaekinin-R was assayed using a previously established recombinant Chinese hamster ovary (CHO)-K1 cell line stably expressing aequorin, referred to henceforth as CHO-K1-aeq cells ([Paluzzi et al., 2012a]; [Wahedi and Paluzzi, 2018]). […] To measure in vivo circulating levels of DH31, kinin and CAPA in female mosquitoes, diluted haemolymph samples collected in 70 µl DPBS droplets (see section 3.2) were loaded in duplicates into 96-well white luminescence plates (Greiner Bio-One, Germany).

[2] abbreviates: CHO-K1-aeq cells transiently expressing Aedaekinin-R (pcDNA3.1+), aequorin luminescence over 20 s, peptides tested up to 10 µmol l^−1, read-out: EC50 on kinin-R.

Where two headings read alike, the source gives them in different places. Bridge positions count the residues as written; N and C are the ends. Square brackets hold non-standard residues; d marks the D form. Ends that are not written are not given here. Peptide text beside a SMILES is read from it. pGlu = O=C1CC[C@@H](C(=O)O)N1

As to `NCCc1c[nH]c2ccc(O)cc12` [5HT, 5-hydroxytryptamine], in experiment [1], the “Effect of single diuretic on fluid secretion” value is reported as “significantly increased fluid secretion”.
Regarding `CC(C)[C@H](NC(=O)[C@@H]1CCC(=O)N1)C(=O)N[C@H](C(=O)N[C@@H](Cc1ccccc1)C(=O)N[C@@H](CO)C(=O)N[C@@H](CCCNC(=N)N)C(=O)N[C@@H](CC(=O)O)C(=O)N[C@@H](Cc1c[nH]c2ccccc12)C(=O)N[C@@H](CC(N)=O)C(=O)N[C@@H](C)C(N)=O)[C@@H](C)O` [ACP] ([pGlu]VTFSRDWNA-NH2), the concentration giving a half-maximal response (EC50) at Aedaekinin-R and on AedaeDH31-R was greater than 10 µM each time.
Consider `CC(C)C[C@H](NC(=O)[C@@H]1CCC(=O)N1)C(=O)N[C@H](C(=O)N[C@@H](Cc1ccccc1)C(=O)N[C@H](C(=O)N1CCC[C@H]1C(=O)N[C@@H](CO)C(=O)N[C@@H](Cc1c[nH]c2ccccc12)C(N)=O)[C@@H](C)O)[C@@H](C)O` [AKH] ([pGlu]LTFTPSW-NH2), for which the EC50 at Aedaekinin-R and on AedaeDH31-R was greater than 10 µM throughout.
As to `CC(C)C[C@@H]1NC(=O)[C@@H](NC(=O)CNC(=O)CNC(=O)[C@@H](N)CCCCN)CSSC[C@@H](C(=O)N[C@@H](Cc2c[nH]c3ccccc23)C(=O)NCC(=O)NCC(=O)N[C@@H](Cc2c[nH]cn2)C(N)=O)NC(=O)[C@H](CO)NC(=O)[C@H](Cc2c[nH]cn2)NC(=O)CNC(=O)[C@H](Cc2ccc(O)cc2)NC(=O)[C@H](CO)NC1=O` [CCHa1] (H-KGGCLSYGHSCWGGH-NH2; disulfide 4-11 (inferred); N-terminus assumed), the EC50 at AedaeDH31-R was greater than 10 µM.
Still for that read-out and setting: under `C[C@@H]1NC(=O)[C@H](C)NC(=O)[C@@H](NC(=O)CN)CSSC[C@@H](C(=O)N[C@@H](Cc2ccc(O)cc2)C(=O)NCC(=O)NCC(=O)N[C@@H](Cc2c[nH]cn2)C(N)=O)NC(=O)[C@H](C)NC(=O)[C@H](Cc2c[nH]cn2)NC(=O)CNC(=O)[C@H](Cc2ccccc2)NC1=O` [CCHa2] (H-GCAAFGHACYGGH-NH2; disulfide 2-9 (inferred); N-terminus assumed) stands greater than 10 µM; under `CSCC[C@H](NC(=O)[C@H](CC(N)=O)NC(=O)[C@@H]1CSSC[C@H](NC(=O)[C@H](CC(C)C)NC(=O)[C@H](CO)NC(=O)[C@H](CCSC)NC(=O)[C@@H](N)Cc2ccc(O)cc2)C(=O)N[C@@H](Cc2c[nH]cn2)C(=O)N[C@@H](Cc2ccccc2)C(=O)N[C@@H](CCCCN)C(=O)N[C@@H](CC(C)C)C(=O)N1)C(N)=O` [CNMa] (H-YMSLCHFKLCNM-NH2; disulfide 5-10 (inferred); N-terminus assumed), greater than 10 µM.
In the case of AGNSGANSGMWFGPRL-NH2 [PK1], the concentration giving a half-maximal response (EC50) at Aedaekinin-R (setting [2]) and at AedaeDH31-R was greater than 10 µM throughout.
Turning to GPTVGLFAFPRV-NH2 [CAPA1], the EC50 on Aedaekinin-R (setting [2]) was greater than 10 µM; on AedaeCAPA-R it was 0.00183 µM.
With “MQRPQGPSLSVANPIEVLRSRLLLEIARRRMKEQDASRVSKNRQYLQQI-NH2 [DH44]”, the EC50 on Aedaekinin-R (setting [2]) and at AedaeDH31-R was greater than 10 µM in each case. Also, the “Luminescence response over background on AedaeDH31-R” value with AedaeDH31-R (10^−6 mol l^−1 dose, Fig. 1B, n=3) is “no detectable activity”. Moreover, the “Effect of single diuretic on fluid secretion” value in experiment [1] is “significantly increased fluid secretion”.
NPFHSWG-NH2 [CDP]: the concentration for a half-maximal effect (EC50) at Aedaekinin-R (setting [2]) came to 0.0115 µM.
Turning to PVFFVASRY-NH2 [RYa-1], the concentration for a half-maximal effect (EC50) on Aedaekinin-R (setting [2]) and at AedaeDH31-R was greater than 10 µM in each case.
For “TVDFGLSRGYSGAQEAKHRMAMAVANFAGGP-NH2 [DH31]”, the EC50 was greater than 10 µM at Aedaekinin-R (setting [2]) and 0.0136 µM in experiment [1].

In general, EC50 refers to the concentration that produces a half-maximal response.

(Values after paper PMC12633732, “Dynamics of release and activity of select neuropeptides post-bloodmeal in the female mosquito, Aedes aegypti” (The Journal of Experimental Biology, 2025).)
